Patent publication US20130053337A1, “GUANIDINYLATED AMINOGLYCOSIDE-LIPID CONJUGATES” (UNIVERSITY OF MANITOBA, priority 2010, published 2013)
≈ marks a conversion by molar mass, not a printed value. Where two headings read alike, the source gives them in different places.

What was measured:
S. aureus ATCC 29213 = assay: MIC, broth macrodilution (CLSI); assay type: cell-based, Staphylococcus aureus; details: S. aureus ATCC29213
Procedure: (§1) All experiments were performed in duplicate.
(§2) Bacterial isolates studied included both reference strains obtained from the American Type Culture Collection (ATCC) as well as clinical strains obtained from the CAN-ICU study which was a national surveillance study assessing the prevalence of antimicrobial resistant pathogens in Canadian intensive care units (Zhanel et al., 2008). Isolates were kept frozen in skim milk at −80° C. until minimum inhibitory concentration (MIC) testing was carried out. Following two subcultures from frozen stock, the in vitro activities of peptides were determined by macrobroth dilution in accordance with the Clinical and Laboratory Standards Institute (CLSI) 2006 guidelines (Zhanel et al., 2008). Stock solutions of peptides were prepared and dilutions made as described by CLSI. Test tubes contained doubling antimicrobial dilutions of cation adjusted Mueller-Hinton broth and inoculated to achieve a final concentration of approximately 5×10^5 cfu/ml then incubated in ambient air for 24 hours prior to reading. Colony counts were performed periodically to confirm inocula. Quality control was regularly performed using ATCC QC organisms.

MRSA ATCC 33592 = assay: MIC, broth macrodilution (CLSI); assay type: cell-based, methicillin-resistant Staphylococcus aureus; details: MRSA ATCC33592
Procedure: as §1, §2

[1] = test system: S. epidermidis ATCC 14990; assay: MIC, broth macrodilution (CLSI); assay type: cell-based, Staphylococcus epidermidis; details: S. epidermidis ATCC14990
Procedure: as §1, §2

MRSE CAN-ICU 61589 = assay: MIC, broth macrodilution (CLSI); assay type: cell-based, methicillin-resistant Staphylococcus epidermidis
Procedure: as §1, §2

S. pneumoniae ATCC 49619 = assay: MIC, broth macrodilution (CLSI), broth with 5% laked horse blood; assay type: cell-based, Streptococcus pneumoniae; details: S. pneumoniae ATCC49619
Procedure: as §1, §2

[2] = test system: E. coli (amikacin MIC 32 mg/L) CAN-ICU 63074; assay: MIC, broth macrodilution (CLSI); assay type: cell-based; details: E. coli CAN-ICU 63074
Procedure: as §1, §2

[3] = test system: E. coli (gentamicin-resistant) CAN-ICU 61714; assay: MIC, broth macrodilution (CLSI); assay type: cell-based; details: E. coli CAN-ICU 61714
Procedure: as §1, §2

E. coli ATCC 25922 = assay: MIC, broth macrodilution (CLSI); assay type: cell-based; details: E. coli ATCC25922
Procedure: as §1, §2

[4] = test system: P. aeruginosa (gentamicin-resistant) CAN-ICU 62308; assay: MIC, broth macrodilution (CLSI); assay type: cell-based; details: P. aeruginosa CAN-ICU 62308
Procedure: as §1, §2

P. aeruginosa ATCC 27853 = assay: MIC, broth macrodilution (CLSI); assay type: cell-based; details: P. aeruginosa ATCC27853
Procedure: as §1, §2

[5] = test system: sheep red blood cell (erythrocytes); assay: Hemolytic assay (in vitro toxicity)
Procedure: Antibacterial activity against Gram-positive and Gram-negative microorganisms was tested via broth macrodilution tests using CLSI methodology (Zhanel et al., 2008). Stock solutions of cationic lipids in water were brought to a concentration of 512 mg/L. Organisms were subcultured and isolated on blood agar, suspended in 3 mL of Mueller-Hinton broth at the turbidity of a […], and diluted to approximately 10^5 cfu/mL before introduction into tubes containing serially diluted lipopeptide antibiotic in Mueller-Hinton broth. Activity testing against S. pneumoniae used broth supplemented with laked horse blood to give 5% horse blood in experimental tubes. Turbidity of lipopeptide solution in broth required creation of control tubes lacking organisms serving as turbidity controls. All tubes were incubated overnight for 16-20 h at 37° C. […] All experiments were performed in duplicate. In-vitro toxicity was determined using a sheep red blood cell hemolytic assay as previously described (Dathe et al., 1996).
In vitro toxicity was determined using a sheep red blood cell (erythrocytes) hemolytic assay (Dathe et al., 1996). […] Erythrocytes were washed and resuspended in Tris buffered saline. The cell suspension was combined with varying concentrations (low to very high) of test and control antimicrobials (e.g., aminoglycosides and APTCs). The samples were centrifuged and the absorbance of the supernatants measured at 540 nm. Tris buffered saline and Triton X were used as negative and positive controls, respectively. The toxicity was assessed by percent hemolysis.

E. faecium ATCC 27270 = assay: MIC, broth macrodilution (CLSI); assay type: cell-based, Enterococcus faecium; details: E. facium ATCC27270
Procedure: as §1, §2

Structure (SMILES) | MIC (S. aureus ATCC 29213) [µg/mL] | MIC (MRSA ATCC 33592) [µg/mL] | MIC [1] [µg/mL] | MIC (MRSE CAN-ICU 61589) [µg/mL] | MIC (S. pneumoniae ATCC 49619) [µg/mL] | MIC [2] [µg/mL] | MIC [3] [µg/mL] | MIC (E. coli ATCC 25922) [µg/mL] | MIC [4] [µg/mL] | MIC (P. aeruginosa ATCC 27853) [µg/mL] | hemolytic activity at 100 mg/L [5] [%] | MIC (E. faecium ATCC 27270) [µg/mL] | hemolytic activity compared to polyamine analogs 3 and 15 [5] | hemolytic activity at 100 mg/L ([5]; 100 mg/L, sheep erythrocytes, percent hemolysis) [%]
CCCCCCCCCCCC(=O)NC[C@H]1O[C@@H](O[C@@H]2[C@@H](O)[C@H](N)C[C@H](N)[C@H]2O[C@H]2O[C@H](CN)[C@@H](O)[C@H](O)[C@H]2N)[C@H](O)[C@@H]1O[C@H]1O[C@@H](CN)[C@@H](O)[C@H](O)[C@H]1N.O=C(O)C(F)(F)F.O=C(O)C(F)(F)F.O=C(O)C(F)(F)F.O=C(O)C(F)(F)F.O=C(O)C(F)(F)F.O=C(O)C(F)(F)F [Compound 2] | 32 | >256 | 4 | 8 | 128 | 128 | 64 | 64 | 256 | 256 | – | – | – | –
CCCCCCCCCCCCCCCC(=O)NC[C@H]1O[C@@H](O[C@@H]2[C@@H](O)[C@H](N)C[C@H](N)[C@H]2O[C@H]2O[C@H](CN)[C@@H](O)[C@H](O)[C@H]2N)[C@H](O)[C@@H]1O[C@H]1O[C@@H](CN)[C@@H](O)[C@H](O)[C@H]1N.O=C(O)C(F)(F)F.O=C(O)C(F)(F)F.O=C(O)C(F)(F)F.O=C(O)C(F)(F)F.O=C(O)C(F)(F)F.O=C(O)C(F)(F)F [Compound 3] | 4 | 8 | 2 | 2 | 64 | – | 64 | 32 | 128 | 128 | 56 | – | – | –
CCCCCCCCCCCCCCCCCCCC(=O)NC[C@H]1O[C@@H](O[C@@H]2[C@@H](O)[C@H](N)C[C@H](N)[C@H]2O[C@H]2O[C@H](CN)[C@@H](O)[C@H](O)[C@H]2N)[C@H](O)[C@@H]1O[C@H]1O[C@@H](CN)[C@@H](O)[C@H](O)[C@H]1N.O=C(O)C(F)(F)F.O=C(O)C(F)(F)F.O=C(O)C(F)(F)F.O=C(O)C(F)(F)F.O=C(O)C(F)(F)F.O=C(O)C(F)(F)F [Compound 4] | 8 | 8 | 4 | 4 | 64 | 64 | 128 | 128 | 64 | 128 | 82 | – | – | –
CCCCC/C=C\C/C=C\CCCCCCCC(=O)NC[C@H]1O[C@@H](O[C@@H]2[C@@H](O)[C@H](N)C[C@H](N)[C@H]2O[C@H]2O[C@H](CN)[C@@H](O)[C@H](O)[C@H]2N)[C@H](O)[C@@H]1O[C@H]1O[C@@H](CN)[C@@H](O)[C@H](O)[C@H]1N.O=C(O)C(F)(F)F.O=C(O)C(F)(F)F.O=C(O)C(F)(F)F.O=C(O)C(F)(F)F.O=C(O)C(F)(F)F.O=C(O)C(F)(F)F [Compound 5] | 16 | 32 | 4 | 4 | 128 | 128 | 64 | 128 | 128 | 256 | – | – | – | –
NC[C@@H]1O[C@H](O[C@H]2[C@@H](O)[C@H](O[C@@H]3[C@@H](O)[C@H](N)C[C@H](N)[C@H]3O[C@H]3O[C@H](CN)[C@@H](O)[C@H](O)[C@H]3N)O[C@@H]2CNC(=O)CCCc2ccc3ccc4cccc5ccc2c3c45)[C@H](N)[C@@H](O)[C@@H]1O.O=C(O)C(F)(F)F.O=C(O)C(F)(F)F.O=C(O)C(F)(F)F.O=C(O)C(F)(F)F.O=C(O)C(F)(F)F.O=C(O)C(F)(F)F [Compound 6] | 16 | 256 | 2 | 64 | >512 | 64 | 64 | 32 | 256 | >512 | – | – | – | –
C[C@H](CCC(=O)NC[C@H]1O[C@@H](O[C@@H]2[C@@H](O)[C@H](N)C[C@H](N)[C@H]2O[C@H]2O[C@H](CN)[C@@H](O)[C@H](O)[C@H]2N)[C@H](O)[C@@H]1O[C@H]1O[C@@H](CN)[C@@H](O)[C@H](O)[C@H]1N)[C@H]1CC[C@H]2[C@@H]3[C@H](O)C[C@@H]4C[C@H](O)CC[C@]4(C)[C@H]3C[C@H](O)[C@]12C.O=C(O)C(F)(F)F.O=C(O)C(F)(F)F.O=C(O)C(F)(F)F.O=C(O)C(F)(F)F.O=C(O)C(F)(F)F.O=C(O)C(F)(F)F [Compound 7] | 16 | 128 | 8 | 16 | >256 | 64 | 64 | 32 | 128 | >256 | – | – | – | –
CCCCCC(=O)NCC1OC(OC2C(O)C(NC(=N)N)CC(NC(=N)N)C2OC2OC(CNC(=N)N)C(O)C(O)C2NC(=N)N)C(O)C1OC1OC(CNC(=N)N)C(O)C(O)C1NC(=N)N.O=C(O)C(F)(F)F.O=C(O)C(F)(F)F.O=C(O)C(F)(F)F.O=C(O)C(F)(F)F.O=C(O)C(F)(F)F.O=C(O)C(F)(F)F (stereo not shown) [Compound 8, 1,3,2′,6′,2′″,6′″-Hexaammonium-guanidinyl-5″-deoxy-5″-N-(hexanoyl)-neomycin hexakis(trifluoroacetate)] | 128 | – | 64 | 64 | >128 | – | – | 128 | – | – | – | 256 | – | –
CC(C)c1cc(C(C)C)c(S(=O)(=O)OCC2OC(OC3C(NC(=O)OC(C)(C)C)CC(NC(=O)OC(C)(C)C)C(OC4OC(CNC(=O)OC(C)(C)C)C(O)C(O)C4O)C3O)C(O)C(NC(=O)OC(C)(C)C)C2O)c(C(C)C)c1 (stereo not shown) [Compound 17, 6″-(2,4,6-Triisopropylbenzenesulfonyl)-1,3,6′,3″-tetra-N-(tert-butoxycarbonyl)kanamycin A] | – | – | – | – | – | – | – | – | – | – | – | – | reduced hemolytic activity | –
NC[C@H]1O[C@H](O[C@H]2[C@H](O)[C@@H](O[C@H]3O[C@H](CO)[C@@H](O)[C@H](N)[C@H]3O)[C@H](N)C[C@@H]2N)[C@H](O)[C@@H](O)[C@@H]1O [Kanamycin A, reference compound] | 4 (≈ 8.26 µM) | >512 | 2 (≈ 4.13 µM) | 128 (≈ 264 µM) | 8 (≈ 16.5 µM) | 32 (≈ 66 µM) | 16 (≈ 33 µM) | 8 (≈ 16.5 µM) | >512 | >512 | – | – | – | <0.4
